Consider one molecule from patent US20130172294A1, “Treatment with VB-201” (Vascular Biogenics Ltd., priority 2010, published 2013).

Structures are written as SMILES.

The data set is described as follows: Pharmacokinetics of VB-201 in human subjects, summary over the studies. Format: in vivo. Here is the method:
Determination of VB-201 concentrations in plasma was performed using an HPLC-MS/MS (high performance liquid chromatography with tandem mass spectrometric detection) assay. Calibration was for a range of from 5 to 500 ng/ml for low doses and from 50 to 5000 ng/ml for high doses. Pharmacokinetic parameters were estimated by using a non-compartmental method, except for the AUC (area under curve), which was determined using a (log-) trapezoidal rule as the area above the previous trough level. All calculations were made using PKWizard (developed by Russell Barbare and Dr. […] was validated against WinNonlin (Pharsight Corp.), which is an FDA-recognized validated program. Pharmacokinetic parameters were calculated by the program according to standard methods used in the art. Calculation of the pharmacokinetic characteristics was based on the actual blood sampling time (in hours), with predose times set to zero. Concentrations below the LLOQ (lower limit of quantification; 4.974 ng/ml) were assumed to be zero.

With `CCCCCCCCCCCCCCCCOCC(COP(=O)([O-])OCC[N+](C)(C)C)OCCCCC(=O)O` (centres unmarked) [VB-201, 1-hexadecyl-2-(4′-carboxybutyl)-glycerol-3-phosphocholine], the “time of peak plasma concentrations after administration” value (oral, over the studies) was 6 to 11 h. Further, the “minimum concentration during a 24-hour period relative to maximum concentration” value (regular once-daily administration (FIGS. 2 and 4)) is “at least 66.7%”.
